Measurements from patent US20230203058A1, “MACROCYCLIC DIAMINE DERIVATIVES AS ENT INHIBITORS FOR THE TREATMENT OF CANCERS, AND COMBINATION THEREOF WITH ADENOSINE RECEPTOR ANTAGONISTS” (ITEOS BELGIUM SA, priority 2020, published 2023).

How the values were obtained:
[1] = target: T1, human ENT1 (Homo sapiens, UniProt Q99808); test: ENT1 binding assay (competition with Sahenta-DY647 on JAR cells); parameters: JAR cells expressing ENT1 were bought from ATCC® (HTB-144TM); host or cells: JAR cells (human choriocarcinoma line; whole cells); conditions: competition with Sahenta-DY647 100 nM, 4° C.
T1 sequence (Q99808 1-456): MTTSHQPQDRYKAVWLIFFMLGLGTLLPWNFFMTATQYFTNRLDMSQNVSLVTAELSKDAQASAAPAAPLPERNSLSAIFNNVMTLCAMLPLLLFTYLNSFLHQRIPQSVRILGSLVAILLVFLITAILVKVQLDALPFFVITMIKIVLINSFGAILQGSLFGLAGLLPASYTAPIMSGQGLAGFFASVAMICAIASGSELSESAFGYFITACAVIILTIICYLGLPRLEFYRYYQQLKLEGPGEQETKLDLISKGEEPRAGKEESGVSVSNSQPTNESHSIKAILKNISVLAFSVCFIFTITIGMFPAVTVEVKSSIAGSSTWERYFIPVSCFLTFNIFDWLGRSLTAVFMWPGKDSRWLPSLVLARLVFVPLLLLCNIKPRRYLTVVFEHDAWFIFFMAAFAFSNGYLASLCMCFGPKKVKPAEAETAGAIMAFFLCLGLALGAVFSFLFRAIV
Summary of the method: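 Competition binding on intact JAR cells (50000 per well) in HBSS with 10 mM Hepes and 0.1% BSA. Cells pre-incubated with compound 30 min at 4 °C, then Sahenta-DY647 added at its IC90 (100 nM) for another 30 min at 4 °C; after washing, fluorescence read at Ex 630/Em 670 nm.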

[2] = test system: CMV peptide-specific CD8+ T cells; test: CMV antigen recall assay (FIG. 3); format: cell-based, human; conditions: ATP 300 µM, 7 days, with IL-2, IL-7, nivolumab
Method: FIG. 3 depicts a bar graph of percent tetramer. PBMCs from a healthy volunteer donor with previous history of CMV infection and known HLA-A*02 subtype were cultured for 7 days with a peptide ([…]) derived from the immunodominant CMV antigen pp65 alongside IL-2, IL-7 and the anti-PD1 antibody nivolumab. ATP was added to the cultures as a source of adenosine, alongside the ENT1 inhibitor molecules as indicated. Expansion of the peptide-specific CD8^+ T cell population was monitored via flow cytometry using […]-MHC-I tetramers linked with BV421. ** = p < 0.01; * = p < 0.05; derived from one-way ANOVA with Tukey’s multiple comparisons test from technical replicates in a single experiment.
Frozen vials of PBMCs from a healthy volunteer donor with history of CMV infection and known HLA-A*02 subtype were purchased from ImmuneXperts. Cells were thawed and washed into X-VIVO15 medium containing 5% human serum and 1 mM sodium pyruvate and plated in 96 U bottom plates (1 × 10^6 cells per well). […] On day 7 of culture the cells were harvested and the frequency of CMV-peptide specific CD8^+ T cells was assessed via flow cytometry using […]-MHC-I tetramers (Tetramer Shop) by quantifying the frequency of tetramer^+ cells within the viable CD8^+ T cell gate.

SMILES	IC50 [1] [nM]	Rescue of proliferation of CMV peptide-specific CD8+ T cells [2]
COc1cc(C(=O)OC2CCCOc3cc(cc(OC)c3OC)C(=O)N(C)CCCN3CCCN(CC2)CC3)cc(OC)c1OC (stereo not shown) [Compound 11, 74,75-dimethoxy-5-methyl-6-oxo-8-oxa-5-aza-1(1,4)-diazepana-7(1,3)-benzenacyclotetradecaphane-12-yl 3,4,5-trimethoxybenzoate]	1 to 20	significant rescue of proliferation
COc1cc(C(=O)O[C@H]2CCCOc3cc(cc(OC)c3OC)C(=O)OCCCN3CCCN(CC2)CC3)cc(OC)c1OC [Compound 2, (12S)-74,75-dimethoxy-6-oxo-5,8-dioxa-1(1,4)-diazepana-7(1,3)-benzenacyclotetradecaphane-12-yl 3,4,5-trimethoxybenzoate]	1 to 20	significant rescue of proliferation
